Tests used:
mTOR-raptor complex = target: T1, mTOR-raptor complex (Rattus norvegicus, UniProt P42346+Q8N122); assay: Coimmunoprecipitation of raptor with mTOR, compound added to cell extracts or immune complexes; format: binding; details: for amount of HA-raptor that coimmunoprecipitated with AU1-mTOR: extracts incubated with increasing concentrations
T1 construct: rows headed: amount of HA-raptor that coimmunoprecipitated with AU1-mTOR; other: extracts incubated with increasing concentrations; amount of HA-raptor that coimmunoprecipitated with AU1-mTOR; other: overexpressed in 293T cells, increasing concentrati; half maximal effect on raptor dissociation from mTOR; other: AU1-mTOR and HA-raptor overexpressed in 293T cells, 1 h; association of AU1-mTOR and HA-rapto
Protocol: 293T cells were transfected with pcDNA3 alone (Vec.) or with a combination of pcDNA3AU1-mTOR, pcDNA33HA-Raptor, and pcDNA33HA-mLST8. Extracts of the cells were incubated with increasing concentrations of FTS before AU1-mTOR was immunoprecipated. Samples of the immune complexes were incubated with [γ-^32P]ATP and recombinant [His^6]PHAS-I, then subjected to SDS-PAGE and transferred to an immobilon membrane. After obtaining a phosphorimage of the membrane to detect ^32P-PHAS-I, the membrane was immunoblotted with PThr^36/45 antibodies. Other samples of the immune complexes were subjected to SDS-PAGE and immunoblots were prepared with antibodies to the HA epitope or to mTOR (see FIG. 13A). Extracts of nontransfected 293T cells were incubated with increasing concentrations of FTS before mTOR was immunoprecipated with mTAb1. A control immunoprecipitation was conducted using nonimmune IgG (NI). Immune complexes were subjected to SDS-PAGE and immunoblots were prepared with antibodies to mLST8, mTOR, and raptor.
Samples of extracts from 293T cells overexpressing AU1-mTOR, HA-raptor, and HA-mLST8 were incubated for 1 h with increasing concentrations of FTS (●, ▴, ▪) or GTS (∘, Δ, □) before immunoprecipitations were conducted with anti-AU1 antibodies. mTOR kinase activity (●, ∘) was determined by measuring ^32P incorporation into [His^6]PHAS-I in immune complex kinases assays performed with [γ-^32P]ATP (see FIG. 14A). The relative amounts of HA-raptor (▴, Δ) and HA-mLST8 (▪, □) that coimmunoprecipitated with AU1-mTOR were determined after immunoblotting with anti-HA antibodies (see FIG. 14B). The results (mean values+S.E. from 5 experiments) are expressed as percentages of the mTOR activity (FIG. 14A) or coimmunoprecipitating proteins (FIG. 14B) from samples incubated without FTS or GTS, and have been corrected for the amounts of AU1-mTOR immunoprecipitated.
293T cells were transfected with pcDNA3 alone (Vec.) or with a combination of pcDNA3AU1-mTOR, pcDNA33HARaptor, and pcDNA33HA-mLST8. AU1-mTOR was immunoprecipitated and samples of the washed immune complexes were at incubated […] for 30 min with no inhibitors or with the following: caffeine (1 mM), FTS (50 μM), LY294002 (10 μM), rapamycin (1 μM) plus FKBP12 (10 μM), and 1 μM wortmannin. To prevent destruction of wortmannin, incubations were conducted in the absence of thiol reducing agents. Samples of the immune complexes were incubated for 10 min with 10 mM MnCl2, 1 mM [γ-^32P]ATP, and 50 μg/ml [His^6]PHAS-I to assess mTOR activity. Other samples were rinsed twice, subjected to SDS-PAGE, and immunoblotted with anti-HA and anti-AU1 antibodies to determine the amounts of HA-raptor and HA-mLST8 associated with AU1-mTOR. The relative amounts of ^32P incorporated into PHAS-I were determined by phosphorimaging (see FIG. 15B).

mTOR-mLST8 = target: T2, mTOR-mLST8 (Homo sapiens, UniProt P42345+Q9BVC4); assay: Coimmunoprecipitation of mLST8 with mTOR from 293T cells incubated with compound; format: cell-based; details: nontransfected 293T cells; much less pronounced than effect on raptor
T2 construct: expressed in transfected cells; host or cells: 293T
Protocol: FIG. 11A & 11B represent data showing FTS inhibits PHAS-I phosphorylation and promotes dissociation of the mTOR-raptor complex in 293T cells. 293T cells were transfected with pcDNA3AU1-mTOR, pcDNA33HARaptor, pcDNA33HA-mLST8, and pCMV-Tag3APHAS-I (FIG. 11A). After 18 h the cells were incubated for 1 h with increasing concentrations of FTS before extracts were prepared. A sample of each extract was subjected to SDS-PAGE and immunoblotted to detect PHAS-I or PThr^36/45. AU1-mTOR was also immunoprecipitated from each extract, and immune complexes were subjected to SDSPAGE and immunoblotted with mTAb2, to detect mTOR, and with anti-HA antibodies, to detect HA-mLST8 and HA-raptor. Nontransfected 293T cells were incubated with increasing concentrations of FTS for 1 h before extracts were prepared. mTOR was immunoprecipitated with mTAb1, and samples were subjected to SDS-PAGE.
FIGS. 12A & 12B represent data showing the effects of incubating cells with increasing concentrations of FTS and GTS on mTOR activity and mTOR association with raptor and mLST8. AU1-mTOR, HA-raptor, and HAmLST8 were overexpressed in 293T cells. The cells were then incubated for 1 h with increasing concentrations of FTS (●, ▴, ▪) or GTS (∘, Δ, □) before extracts were prepared. Immunoprecipitations were then conducted with anti-AU1 antibodies. mTOR kinase activity (●, ∘) was determined by measuring ^32P incorporation into [His^6]PHAS-I in immune complex kinases assays performed with [γ-^32P]ATP. The relative amounts of HA-raptor (▴, Δ) and HA-mLST8 (▪, □) that coimmunoprecipitated with AU1-mTOR were determined after immunoblotting with anti-HA antibodies. The results (mean values±S.E. from 3 experiments) are expressed as percentages of the mTOR activity (FIG. 12A) or coimmunoprecipitating proteins (FIG. 12B) from samples incubated without FTS or GTS, and have been corrected for the amounts of AU1-mTOR immunoprecipitated.
To investigate further the inhibitory effects of FTS on mTOR signaling, the effect of the drug on the association of mTOR, raptor, and mLST8 was determined. […]

T1 sequence (Q9BVC4 whole entry): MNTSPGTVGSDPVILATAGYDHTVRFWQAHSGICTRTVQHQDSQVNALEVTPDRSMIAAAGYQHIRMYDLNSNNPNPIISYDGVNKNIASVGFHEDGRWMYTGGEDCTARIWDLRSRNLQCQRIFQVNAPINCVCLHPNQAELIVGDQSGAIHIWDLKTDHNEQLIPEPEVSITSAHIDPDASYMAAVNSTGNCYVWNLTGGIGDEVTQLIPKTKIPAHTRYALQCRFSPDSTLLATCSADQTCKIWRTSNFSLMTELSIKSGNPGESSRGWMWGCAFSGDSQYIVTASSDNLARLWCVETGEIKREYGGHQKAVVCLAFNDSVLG
T1 sequence (Q8N122 whole entry): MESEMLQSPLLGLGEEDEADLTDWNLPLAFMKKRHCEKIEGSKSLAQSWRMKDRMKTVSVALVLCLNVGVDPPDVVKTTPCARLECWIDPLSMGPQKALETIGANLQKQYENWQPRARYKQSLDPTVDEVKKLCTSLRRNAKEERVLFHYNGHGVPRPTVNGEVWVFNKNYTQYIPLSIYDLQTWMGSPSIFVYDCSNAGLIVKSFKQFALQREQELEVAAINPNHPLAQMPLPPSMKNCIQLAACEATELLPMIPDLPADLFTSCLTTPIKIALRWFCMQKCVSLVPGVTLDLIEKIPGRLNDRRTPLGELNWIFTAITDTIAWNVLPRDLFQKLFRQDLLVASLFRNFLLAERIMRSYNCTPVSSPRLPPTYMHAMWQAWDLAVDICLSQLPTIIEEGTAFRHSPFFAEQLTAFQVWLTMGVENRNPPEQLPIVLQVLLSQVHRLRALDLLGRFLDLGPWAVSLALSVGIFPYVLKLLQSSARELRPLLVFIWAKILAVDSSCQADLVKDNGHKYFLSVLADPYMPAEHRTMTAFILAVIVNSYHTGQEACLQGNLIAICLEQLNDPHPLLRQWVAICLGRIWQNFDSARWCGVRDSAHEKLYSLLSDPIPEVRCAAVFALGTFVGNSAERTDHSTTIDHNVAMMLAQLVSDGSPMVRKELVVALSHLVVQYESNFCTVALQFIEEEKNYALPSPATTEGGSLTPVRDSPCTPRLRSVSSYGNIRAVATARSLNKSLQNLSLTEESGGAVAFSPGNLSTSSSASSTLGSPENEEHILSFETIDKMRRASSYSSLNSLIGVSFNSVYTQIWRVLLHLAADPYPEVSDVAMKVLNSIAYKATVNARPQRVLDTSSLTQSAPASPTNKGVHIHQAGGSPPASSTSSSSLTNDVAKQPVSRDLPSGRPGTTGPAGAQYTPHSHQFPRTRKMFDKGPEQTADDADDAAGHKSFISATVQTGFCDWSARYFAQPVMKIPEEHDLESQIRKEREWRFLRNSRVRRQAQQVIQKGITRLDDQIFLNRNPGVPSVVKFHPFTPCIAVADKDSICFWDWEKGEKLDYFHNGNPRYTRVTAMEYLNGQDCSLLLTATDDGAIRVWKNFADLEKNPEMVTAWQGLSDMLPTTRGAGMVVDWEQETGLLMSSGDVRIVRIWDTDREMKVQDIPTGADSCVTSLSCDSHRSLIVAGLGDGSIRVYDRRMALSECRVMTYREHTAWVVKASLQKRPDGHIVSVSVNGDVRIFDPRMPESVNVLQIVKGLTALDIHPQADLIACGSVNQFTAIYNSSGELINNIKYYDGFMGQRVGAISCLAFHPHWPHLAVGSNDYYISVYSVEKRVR
T2 sequence (Q9BVC4 whole entry, other chains not shown): as the sequence (Q9BVC4 whole entry) above

SMILES | amount of HA-raptor that coimmunoprecipitated with AU1-mTOR (mTOR-raptor complex) | association of AU1-mTOR and HA-raptor (mTOR-raptor complex; FTS 50 μM, comparison with other mTOR inhibitors) | amount of endogenous mLST8 that coimmunoprecipitated with mTOR (mTOR-mLST8)
CC(C)=CCC/C(C)=C/CSc1ccccc1C(=O)O [GTS, S-geranylthiosalicylic acid, reference compound] | progressive decreases | – | –
CC(C)=CCC/C(C)=C/CC/C(C)=C/CSc1ccccc1C(=O)O [FTS, farnesylthiosalicylic acid] | decreased | decreased | also decreased
